Assay results taken from US12398087B2, “Methods of making bempedoic acid and compositions of the same” (Esperion Therapeutics, Inc., priority 2019, dated 2025).

Experiments:
[1] = Water sorption by dynamic vapor sorption; type: physicochemical; details: crystalline form; relative humidity of 80%, temperature of 25° C.
Procedure: The crystalline form of the compound of formula (V) may also be characterized according to its water sorption properties. […] In certain embodiments, the crystalline form of the compound of formula (V) has a water sorption isotherm, when measured at 25° C., substantially the same as shown in FIG. 6.

[2] = Thermogravimetric analysis (TGA); type: physicochemical; details: crystalline form; heated at 10° C./minute from ~25° C. to about 315° C.
Procedure: Thermogravimetric analysis (TGA) data for the crystalline form of the compound of formula (V) were collected using a TA Discovery 550 TGA instrument. The TGA instrument was calibrated using a nickel reference standard. Samples of the crystalline form of the compound of formula (V) were placed in open platinum sample pans and heated at a rate of 10° C./minute from about ambient temperature (˜ 25° C.) to about 315° C.

change in mass, as determined by dynamic vapor sorption [1]: about 0.03%
Structure (SMILES): CC(C)(CCCCCC(O)CCCCCC(C)(C)C(=O)O)C(=O)O [compound of formula (V), 8-hydroxy-2,2,14,14-tetramethylpentadecanedioic acid]
weight loss in TGA curve [2]: negligible weight loss prior to decomposition occurring
